Legend:
[1] = system: non-small cell lung carcinoma (NSCLC); assay: Japan Phase III Clinical Trial: patient survival, NSCLC; type: in vivo, patients
Source text: (§1) As utilized herein, the term "clinical trial" or "trial", refers to the Japan Phase III Clinical Trial disclosed in the present invention which was utilized to show the ability of Tavocept™ (also referred to in the literature as disodium 2,2'-dithio-bis-ethane sulfonate, dimesna, or BNP7787) to prevent and/or reduce peripheral neuropathy induced by paclitaxel/cisplatin combination therapy. The incidence and severity of adverse reactions, time to their onset, etc. and the like, were compared between patients treated with Tavocept™ and those given a placebo using Quality of Life (QOL) questionnaires (i.e., Peripheral Neuropathy Questionnaire (PNQ^©) and CIPN-20)) and the National Cancer Institute - Common Toxicity Criteria (NCI-CTC). The effects of Tavocept™ on the Quality of Life (QOL) of patients under anticancer treatment was also evaluated using the QOL questionnaire, EORTC QLQ-C30. Whether or not Tavocept™ would affect the efficacy of paclitaxel/cisplatin combination therapy was also evaluated based on the response rate, aggravation-free survival period, and total survival period. In order to make all these evaluations, Tavocept™ (approximately14-22 g/m^2, most preferably approximately 18.4 g/m^2) or placebo (0.9% NaCl) was administered to non-small cell lung carcinoma (NSCLC) patients, including adenocarcinoma patients, under chemotherapy with paclitaxel (approximately 160-190 mg/m^2, most preferably approximately 175 mg/m^2) and cisplatin (approximately 60-100 mg/m^2, most preferably approximately 80 mg/m^2), every 3 weeks (and repeated for a minimum of 2 cycles).
(§2) Data was recently unblinded from a multicenter double-blind randomized placebo-controlled Phase III clinical trial of the Formula (I) compound Tavocept™ (also known as BNP7787, disodium 2,2'-dithio-bis-ethane sulfonate, and dimesna) conducted in Japan (hereinafter the "Japan Phase III Clinical Trial") and involving patients with advanced non-small cell lung carcinoma (NSCLC) who received the chemotherapeutic drugs paclitaxel and cisplatin. […]

adenocarcinoma = assay: Japan Phase III Clinical Trial: patient survival, adenocarcinoma; type: in vivo, patients
Source text: as §1, with “In order to make all these evaluations, Tavocept™ (approximately14-22 g/m^2, most preferably approximately 18.4 g/m^2) or placebo (0.9% NaCl) was administered to non-small cell lung carcinoma (NSCLC) patients, including adenocarcinoma patients, under chemotherapy with paclitaxel (approximately 160-190 mg/m^2, most preferably approximately 175 mg/m^2) and cisplatin (approximately 60-100 mg/m^2, most preferably approximately 80 mg/m^2), every 3 weeks (and repeated for a minimum of 2 cycles).” left out

[2] = system: non-small cell lung carcinoma (NSCLC) patients; assay: Japan Phase III Clinical Trial: other chemotherapy-related symptoms and toxicities; type: in vivo
Source text: as §1
Data was recently unblinded from a multicenter double-blind randomized placebo-controlled Phase III clinical trial of the Formula (I) compound Tavocept™ (also known as BNP7787, disodium 2,2'-dithio-bis-ethane sulfonate, and dimesna) conducted in Japan (hereinafter the "Japan Phase III Clinical Trial") and involving patients with advanced non-small cell lung carcinoma (NSCLC) who received the chemotherapeutic drugs paclitaxel and cisplatin.
Patients admitted into the trial included those patients without previous treatment (excluding surgical treatment, administration of Picibanil into the serous membrane, irradiation of 30% or less hematopoietic bone, or oral chemotherapeutic agents within 3 months of entry in the trial).
The Japan Phase III Clinical Trial was conducted as a double-blind study because peripheral neuropathy is diagnosed based on subjective symptoms evaluated through clinical interviews, lab tests, and the like. Accordingly, evaluations by both physicians and patients are highly important. […] A placebo was used as control since there is no established therapy or drug for preventing peripheral neuropathy. Because the severity of peripheral neuropathy is evaluated based on patients' reports (i.e., subjective symptoms), the Peripheral Neuropathy Questionnaire (PNQ^©) was used in primary evaluation. CIPN-20 and NCI-CTC were used in secondary evaluation. The incidence and severity of adverse reactions, time to their onset, etc. and the like, were compared between patients treated with Tavocept™ and those given a placebo using the aforementioned methods.
In order to conduct the present trial, Tavocept™ (approximately14-22 g/m^2, most preferably approximately 18.4 g/m^2) or placebo (0.9% NaCl) was administered to non-small cell lung carcinoma (NSCLC) patients receiving chemotherapy with paclitaxel (approximately 160-190 mg/m^2, most preferably approximately 175 mg/m^2) and cisplatin (approximately 60-100, most preferably approximately 80 mg/m^2), every 3 weeks (and repeated for a minimum of 2 cycles).

[3] = system: non-small cell lung carcinoma (NSCLC) patients; assay: Japan Phase III Clinical Trial: decrease in hemoglobin, erythrocyte and hematocrit levels; type: in vivo; details: Tavocept arm with paclitaxel and cisplatin, Fig. 3
Source text: as §1, §2

[4] = system: patients with advanced non-small cell lung carcinoma (NSCLC); assay: Japan Phase III Clinical Trial: chemotherapy-induced peripheral neuropathy (Peripheral Neuropathy Questionnaire, PNQ); type: in vivo
Source text: As utilized herein, the term "clinical trial" or "trial", refers to the Japan Phase III Clinical Trial disclosed in the present invention which was utilized to show the ability of Tavocept™ (also referred to in the literature as disodium 2,2'-dithio-bis-ethane sulfonate, dimesna, or BNP7787) to prevent and/or reduce peripheral neuropathy induced by paclitaxel/cisplatin combination therapy. […] The effects of Tavocept™ on the Quality of Life (QOL) of patients under anticancer treatment was also evaluated using the QOL questionnaire, EORTC QLQ-C30. Whether or not Tavocept™ would affect the efficacy of paclitaxel/cisplatin combination therapy was also evaluated based on the response rate, aggravation-free survival period, and total survival period. […]
The Japan Phase III Clinical Trial was conducted as a double-blind study because peripheral neuropathy is diagnosed based on subjective symptoms evaluated through clinical interviews, lab tests, and the like. […] Because the severity of peripheral neuropathy is evaluated based on patients' reports (i.e., subjective symptoms), the Peripheral Neuropathy Questionnaire (PNQ^©) was used in primary evaluation. […]

[5] = system: non-small cell lung carcinoma (NSCLC); assay: Japan Phase III Clinical Trial: tumor response rate to chemotherapy; type: in vivo, patients; details: Tavocept arm with paclitaxel and cisplatin, Fig. 4
Source text: as §1, with “In order to make all these evaluations, Tavocept™ (approximately14-22 g/m^2, most preferably approximately 18.4 g/m^2) or placebo (0.9% NaCl) was administered to non-small cell lung carcinoma (NSCLC) patients, including adenocarcinoma patients, under chemotherapy with paclitaxel (approximately 160-190 mg/m^2, most preferably approximately 175 mg/m^2) and cisplatin (approximately 60-100 mg/m^2, most preferably approximately 80 mg/m^2), every 3 weeks (and repeated for a minimum of 2 cycles).” left out

[6] = clinical trial population, summary statement

With `O=S(=O)([O-])CCSSCCS(=O)(=O)[O-].[Na+].[Na+]` [Tavocept™, disodium 2,2'-dithio-bis-ethane sulfonate] the “increase in median survival time” value ([1]; NSCLC patients, paclitaxel/Tavocept/cisplatin vs paclitaxel/saline placebo/cisplatin, Fig. 5) was “up to 40 days”, the survival period ([1]; female NSCLC patients, paclitaxel/Tavocept/cisplatin vs paclitaxel/saline placebo/cisplatin, Fig. 6) was “longer survival period” and the survival times ([1]; patients with advanced NSCLC receiving Tavocept and chemotherapy, summary statement) was “increased survival times”. The “increase in median survival time” value (adenocarcinoma; adenocarcinoma patients, paclitaxel/Tavocept/cisplatin vs paclitaxel/saline placebo/cisplatin, Fig. 7) was “up to 138 days”, the survival time (adenocarcinoma; patients with adenocarcinoma receiving Tavocept and chemotherapy, summary statement) was “medically-important increase” and the chemotherapy-induced kidney damage [2, 6] was “medically-important reductions”. For the same molecule, the chemotherapy-induced vomiting/emesis [2, 6] was “medically-important reductions”, the anorexia ([2]; p = 0.0029, paclitaxel/Tavocept/cisplatin vs placebo regimen) was “reductions” and the fatigue ([2]; p = 0.0163, paclitaxel/Tavocept/cisplatin vs placebo regimen) was “reductions”. The nausea/vomiting ([2]; p = 0.0240, paclitaxel/Tavocept/cisplatin vs placebo regimen) was “reductions”, the diarrhea ([2]; p = 0.0859, paclitaxel/Tavocept/cisplatin vs placebo regimen) was “reductions” and the insomnia ([2]; p = 0.1108, paclitaxel/Tavocept/cisplatin vs placebo regimen) was “reductions”. The constipation ([2]; p = 0.1114, paclitaxel/Tavocept/cisplatin vs placebo regimen) was “reductions”, the “patients with Grade 3 (severe) decrease in hematocrit levels” value ([3]; placebo arm 5) was 1 patients and the “patients with Grade 3 (severe) decrease in red blood cell” value ([3]; placebo arm 5) was 1 patients. For the same molecule, the “patients with Grade 3 (severe) decrease in hemoglobin” value ([3]; placebo arm 8) was 2 patients, the chemotherapy-induced peripheral neuropathy ([4]; Tavocept and chemotherapy vs chemotherapy and placebo, summary statement) was “medically-important reductions” and the “reduction in severe (Grade D or E) peripheral neuropathy” value ([4]; paclitaxel/Tavocept/cisplatin regimen vs paclitaxel/saline placebo/cisplatin regimen, PNQ, Fig. 1) was ~50%. For the same molecule, the “response rate as measured by the IRC” value ([5]; Independent Radiological Committee, placebo arm 28.6%) was 33.3% and the “Response Rate, as measured by physicians” value ([5]; placebo arm 33.0%) was 41.9%.

Source: patent EP2249825B1, “TREATMENT METHODS AND COMPOSITIONS FOR LUNG CANCER, ADENOCARCINOMA, AND OTHER MEDICAL CONDITIONS” (BIONUMERIK PHARMACEUTICALS, INC., priority 2008, dated 2009)
